Reference: patent US9181234B2, “Antibacterial compounds” (priority 2010, dated 2015)
Converted amounts (≈) assume the structure as drawn.

Legend:
[1] = physchem; conditions: for solubility at 24 h: kinetic from dmso stock
Outline: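 DMSO doubling dilutions were diluted twenty-fold into 100 mM citrate (pH 4), PBS (pH 7.4) or carbonate-bicarbonate (pH 9). After 24 h equilibration at room temperature, absorbance was read at 620 nm. The reported value is the highest concentration without measurable precipitate.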

[2] = tested on: Staphylococcus aureus (Isolate ID ATCC 29213); experiment: Antibacterial activity, MIC, S. aureus; type: cell-based; conditions: broth microdilution or agar dilution; for MIC: Staphylococcus aureus, ATCC29213, Gram positive strain
Outline: (§1)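 Readout is the MIC, established according to CLSI standard M7-A7 using either agar dilution or broth microdilution.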

[3] = tested on: Haemophilus influenzae (Isolate ID ATCC 49247); experiment: Antibacterial activity, MIC, H. influenzae; type: cell-based; conditions: Gram negative strain, broth microdilution or agar dilution; for MIC: Haemophilus influenzae, ATCC49247
Outline: as §1

[4] = tested on: Enterococcus faecalis (Isolate ID ATCC 29212); experiment: Antibacterial activity, MIC, E. faecalis; type: cell-based; conditions: Gram positive strain, broth microdilution or agar dilution; for MIC: Enterococcus faecalis, ATCC29212
Outline: as §1

[5] = tested on: Streptococcus pyogenes (Isolate ID ATCC 51339); experiment: Antibacterial activity, MIC, S. pyogenes; type: cell-based; conditions: broth microdilution or agar dilution; for MIC: Streptococcus pyogenes, ATCC51339, Gram positive strain
Outline: as §1

[6] = pH 7.4, aqueous buffer, Max Solubility
[7] = pH 7.4, aqueous buffer, Solubility (pH 7.4)
[8] = pH 7.4, aqueous buffer, Solubility Range
[9] = pH 7.4, aqueous buffer, Solubility Range (maximum solubility)
[10] = pH 9, aqueous buffer, Max Solubility
[11] = pH 9, aqueous buffer, Solubility Range (maximum solubility)

SMILES	solubility at 24 h [1, 6]	solubility at 24 h [1, 7]	solubility at 24 h [1, 8]	solubility at 24 h [1, 9]	MIC [2]	MIC [3]	MIC [4]	MIC [5]	solubility at 24 h [1, 10]	solubility at 24 h [1, 11]	Solubility (pH 7.4) ([1]; pH 7.4)	Max Solubility ([1]; pH 9)	Antibacterial Activity (MIC) S. aureus (ATCC 29213) ([2]; Gram positive strain)	Antibacterial Activity (MIC) H. influenzae (ATCC 49247) [3]	Antibacterial Activity (MIC) E. faecalis (ATCC 29212) [4]	Antibacterial Activity (MIC) S. pyogenes (ATCC 51339) ([5]; Gram positive strain)
CCNC(=O)Nc1nc2cc(-c3cnc(N4CCC(CC)(C(=O)O)CC4)nc3)cc(N3CCOCC3)c2s1 [Compound 114, 4-ethyl-1-[5-[2-(ethylcarbamoylamino)-7-morpholino-1,3-benzothiazol-5-yl]pyrimidin-2-yl]piperidine-4-carboxylic acid]	400 µg/mL (≈ 741 µM)	400 µg/mL (≈ 741 µM)	400 to 800 µg/mL (≈ 741 to 1480 µM)	400 to 800 µg/mL (≈ 741 to 1480 µM)	1 to 16 µg/mL (≈ 1.85 to 29.6 µM)	> 16 µg/mL	≤ 0.25 µg/mL	1 to 16 µg/mL (≈ 1.85 to 29.6 µM)								
CCNC(=O)Nc1nc2cc(-c3cnc(N4CCC(CC)(C(=O)O)CC4)nc3)cc(-c3ccc(F)cc3)c2s1 [Compound 115]		400 µg/mL (≈ 729 µM)	400 to 800 µg/mL (≈ 729 to 1460 µM)		≤ 0.25 µg/mL	> 16 µg/mL	≤ 0.25 µg/mL	1 to 16 µg/mL (≈ 1.82 to 29.2 µM)	≥ 800 µg/mL	> 800 µg/mL						
CCCC1(C(=O)O)CCN(c2ncc(-c3cc(-c4ccccn4)c4sc(NC(=O)NCC)nc4c3)cn2)CC1 [Compound 117]		400 µg/mL (≈ 733 µM)	400 to 800 µg/mL (≈ 733 to 1470 µM)		≤ 0.25 µg/mL	1 to 16 µg/mL (≈ 1.83 to 29.3 µM)	≤ 0.25 µg/mL	≤ 0.25 µg/mL								
CCCC1(C(=O)O)CCN(c2ncc(-c3cc(-c4cnccn4)c4sc(NC(=O)NCC)nc4c3)cn2)CC1 [Compound 118]		400 µg/mL (≈ 732 µM)	400 to 800 µg/mL (≈ 732 to 1460 µM)		≤ 0.25 µg/mL	1 to 16 µg/mL (≈ 1.83 to 29.3 µM)	≤ 0.25 µg/mL	≤ 0.25 µg/mL	≥ 800 µg/mL	> 800 µg/mL						
CCCC1(C(=O)OCC)CCN(c2ncc(-c3cc(Br)c4sc(NC(=O)NCC)nc4c3)cn2)CC1 [Compound 119]											400 μg/mL	≧800 μg/mL	A (“A” activity ≦0.25 μg/mL)	D (“D” activity >16 μg/mL)	A (“A” activity ≦0.25 μg/mL)	C (“C” activity >1.0 μg/mL-16 μg/mL)
CCCC1(C(=O)O)CCN(c2ncc(-c3cc(-c4nccc(C)n4)c4sc(NC(=O)NCC)nc4c3)cn2)CC1 [Compound 120]		400 µg/mL (≈ 713 µM)	400 to 800 µg/mL (≈ 713 to 1430 µM)		≤ 0.25 µg/mL	> 16 µg/mL	≤ 0.25 µg/mL	≤ 0.25 µg/mL	≥ 800 µg/mL	> 800 µg/mL						
CCCC1(C(=O)O)CCN(c2ncc(-c3cc(-c4cc(OC)ncn4)c4sc(NC(=O)NCC)nc4c3)cn2)CC1 [Compound 121]		100 µg/mL (≈ 173 µM)	12.5 to 400 µg/mL (≈ 21.7 to 694 µM)		≤ 0.25 µg/mL	1 to 16 µg/mL (≈ 1.73 to 27.7 µM)	≤ 0.25 µg/mL	≤ 0.25 µg/mL	≥ 800 µg/mL	> 800 µg/mL						
CCCC1(C(=O)O)CCN(c2ncc(-c3cc(-c4cc(OC)ccn4)c4sc(NC(=O)NCC)nc4c3)cn2)CC1 [Compound 122]	≥ 800 µg/mL	≥ 800 µg/mL	> 800 µg/mL	> 800 µg/mL	≤ 0.25 µg/mL	1 to 16 µg/mL (≈ 1.74 to 27.8 µM)	≤ 0.25 µg/mL	≤ 0.25 µg/mL								
CCCC1(C(=O)O)CCN(c2ncc(-c3cc(-c4cc(C#N)ccn4)c4sc(NC(=O)NCC)nc4c3)cn2)CC1 [Compound 123]	≥ 800 µg/mL	≥ 800 µg/mL	> 800 µg/mL	> 800 µg/mL	≤ 0.25 µg/mL	> 16 µg/mL	≤ 0.25 µg/mL	≤ 0.25 µg/mL								
CCCC1(C(=O)O)CCN(c2ncc(-c3cc(-c4ccc(C#N)cn4)c4sc(NC(=O)NCC)nc4c3)cn2)CC1 [Compound 124]	≥ 800 µg/mL	≥ 800 µg/mL	> 800 µg/mL	> 800 µg/mL	≤ 0.25 µg/mL	1 to 16 µg/mL (≈ 1.75 to 28 µM)	≤ 0.25 µg/mL	≤ 0.25 µg/mL								
CCCC1(C(=O)O)CCN(c2ncc(-c3cc(-c4ncnc5[nH]ccc45)c4sc(NC(=O)NCC)nc4c3)cn2)CC1 [Compound 125]		50 µg/mL (≈ 85.4 µM)	12.5 to 400 µg/mL (≈ 21.3 to 683 µM)		0.25 to 1 µg/mL (≈ 0.427 to 1.71 µM)	> 16 µg/mL	≤ 0.25 µg/mL	≤ 0.25 µg/mL	≥ 800 µg/mL	> 800 µg/mL						
CCCC1(C(=O)O)CCN(c2ncc(-c3cc(-c4ncccc4C#N)c4sc(NC(=O)NCC)nc4c3)cn2)CC1 [Compound 126]		100 µg/mL (≈ 175 µM)	12.5 to 400 µg/mL (≈ 21.9 to 701 µM)		≤ 0.25 µg/mL	1 to 16 µg/mL (≈ 1.75 to 28 µM)	≤ 0.25 µg/mL	≤ 0.25 µg/mL	≥ 800 µg/mL	> 800 µg/mL						
CCCC1(C(=O)O)CCN(c2ncc(-c3cc(-c4nccc(OC)n4)c4sc(NC(=O)NCC)nc4c3)cn2)CC1 [Compound 127]		12.5 µg/mL (≈ 21.7 µM)	12.5 to 400 µg/mL (≈ 21.7 to 694 µM)		≤ 0.25 µg/mL	> 16 µg/mL	≤ 0.25 µg/mL	≤ 0.25 µg/mL	25 µg/mL (≈ 43.4 µM)	12.5 to 400 µg/mL (≈ 21.7 to 694 µM)						
CCNC(=O)Nc1nc2cc(-c3cnc(N4CCC(N)(C(=O)O)CC4)nc3)cc(-c3ccccn3)c2s1 [Compound 128, 4-amino-1-[5-[2-(ethylcarbamoylamino)-7-(2-pyridyl)-1,3-benzothiazol-5-yl]pyrimidin-2-yl]piperidine-4-carboxylic acid]		25 µg/mL (≈ 48.2 µM)	12.5 to 400 µg/mL (≈ 24.1 to 771 µM)		> 16 µg/mL	> 16 µg/mL	> 16 µg/mL	1 to 16 µg/mL (≈ 1.93 to 30.9 µM)								
CCNC(=O)Nc1nc2cc(-c3cnc(N4CCC(C(=O)O)(c5ccccc5)CC4)nc3)cc(-c3ccccn3)c2s1 [Compound 129]		12.5 µg/mL (≈ 21.6 µM)	12.5 to 400 µg/mL (≈ 21.6 to 690 µM)		0.25 to 1 µg/mL (≈ 0.431 to 1.73 µM)	> 16 µg/mL	≤ 0.25 µg/mL	0.25 to 1 µg/mL (≈ 0.431 to 1.73 µM)								
CCNC(=O)Nc1nc2cc(-c3cnc(N4CCC(C#N)(C(=O)O)CC4)nc3)cc(-c3ccccn3)c2s1 [Compound 130]		200 µg/mL (≈ 378 µM)	12.5 to 400 µg/mL (≈ 23.6 to 757 µM)		> 16 µg/mL	> 16 µg/mL	1 to 16 µg/mL (≈ 1.89 to 30.3 µM)	1 to 16 µg/mL (≈ 1.89 to 30.3 µM)								
CCNC(=O)Nc1nc2cc(-c3cnc(N4CCC(O)(C(=O)O)CC4)nc3)cc(-c3ccccn3)c2s1 [Compound 131]		100 µg/mL (≈ 192 µM)	12.5 to 400 µg/mL (≈ 24.1 to 770 µM)		1 to 16 µg/mL (≈ 1.92 to 30.8 µM)	1 to 16 µg/mL (≈ 1.92 to 30.8 µM)	0.25 to 1 µg/mL (≈ 0.481 to 1.92 µM)	≤ 0.25 µg/mL								
CCNC(=O)Nc1nc2cc(-c3cnc(N4CCC(OC)(C(=O)O)CC4)nc3)cc(-c3ccccn3)c2s1 [Compound 132]		400 µg/mL (≈ 750 µM)	400 to 800 µg/mL (≈ 750 to 1500 µM)		0.25 to 1 µg/mL (≈ 0.469 to 1.87 µM)	1 to 16 µg/mL (≈ 1.87 to 30 µM)	≤ 0.25 µg/mL	≤ 0.25 µg/mL								
CCNC(=O)Nc1nc2cc(-c3cnc(N4CCC(C(=O)O)(S(C)(=O)=O)CC4)nc3)cc(-c3ccccn3)c2s1 [Compound 133]		≥ 800 µg/mL	> 800 µg/mL		> 16 µg/mL	> 16 µg/mL	1 to 16 µg/mL (≈ 1.72 to 27.5 µM)	1 to 16 µg/mL (≈ 1.72 to 27.5 µM)								
CCNC(=O)Nc1nc2cc(-c3cnc(N4CCC(Cc5ccccc5)(C(=O)O)CC4)nc3)cc(-c3ccccn3)c2s1 [Compound 134]		100 µg/mL (≈ 168 µM)	12.5 to 400 µg/mL (≈ 21.1 to 674 µM)		≤ 0.25 µg/mL	> 16 µg/mL	≤ 0.25 µg/mL	0.25 to 1 µg/mL (≈ 0.421 to 1.68 µM)								
CCNC(=O)Nc1nc2cc(-c3cnc(N4CCC(F)(C(=O)O)CC4)nc3)cc(-c3ccccn3)c2s1 [Compound 135]		400 µg/mL (≈ 767 µM)	400 to 800 µg/mL (≈ 767 to 1530 µM)		1 to 16 µg/mL (≈ 1.92 to 30.7 µM)	1 to 16 µg/mL (≈ 1.92 to 30.7 µM)	≤ 0.25 µg/mL	≤ 0.25 µg/mL								
